Target: T1, recombinant full-length human prolyl endopeptidase (PREP) (Homo sapiens, UniProt P48147)
T1 construct: To recombinant full-length human prolyl endopeptidase (PREP, R&D-Systems, 4308-SE); purchased R&D-Systems 4308-SE
T1 sequence (P48147 1-710): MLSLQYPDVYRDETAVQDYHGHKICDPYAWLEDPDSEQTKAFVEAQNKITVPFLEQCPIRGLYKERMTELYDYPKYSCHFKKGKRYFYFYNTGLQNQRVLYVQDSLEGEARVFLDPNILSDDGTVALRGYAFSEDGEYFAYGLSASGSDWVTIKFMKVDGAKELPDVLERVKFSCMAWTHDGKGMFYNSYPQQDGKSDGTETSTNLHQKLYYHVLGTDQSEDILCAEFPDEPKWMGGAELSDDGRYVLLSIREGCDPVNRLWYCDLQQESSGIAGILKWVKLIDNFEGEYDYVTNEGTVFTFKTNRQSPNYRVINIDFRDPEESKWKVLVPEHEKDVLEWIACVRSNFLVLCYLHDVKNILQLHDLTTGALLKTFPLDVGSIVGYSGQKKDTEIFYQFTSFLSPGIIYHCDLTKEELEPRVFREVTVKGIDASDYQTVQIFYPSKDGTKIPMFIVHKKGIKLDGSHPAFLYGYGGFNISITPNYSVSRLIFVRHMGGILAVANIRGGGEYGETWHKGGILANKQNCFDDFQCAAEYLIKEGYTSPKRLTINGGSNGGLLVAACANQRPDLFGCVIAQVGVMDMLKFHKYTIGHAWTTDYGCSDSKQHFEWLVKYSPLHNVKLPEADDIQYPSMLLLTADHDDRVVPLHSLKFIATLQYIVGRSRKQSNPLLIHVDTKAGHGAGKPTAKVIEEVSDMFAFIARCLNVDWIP
Assay: Biochemical human prolyl endopeptidase (PREP) assay with fluorescently labelled substrate
Settings: substrate Z-Gly-Pro-AMC 50 μM, 32° C., 60 min; some as mean values from multiple independent determinations
Outline: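 Initial rates of fluorescence increase from 50 μM Z-Gly-Pro-AMC cleavage (ex 360/em 465 nm, 60 min, 32° C) give percent PREP activity versus no-compound control, and IC50 is interpolated. Enzyme used at 0.4 nM (final, example) in Tris pH 7.5 with EDTA, GSH, BSA and Brij-35; compounds span 1 nM to 30 μM.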

IC50 [nM]	SMILES
3.15	Cc1ccc(Cn2nc3n(c2=O)C(C(=O)N2C[C@@H]4[C@H](C2)C4(F)F)CCC3)cc1 (mixture of isomers) [Example 117, (5RS)-5-{[(cis)-6,6-Difluoro-3-azabicyclo[3.1.0]hex-3-yl]carbonyl}-2-(4-methylbenzyl)-5,6,7,8-tetrahydro[1,2,4]triazolo[4,3-a]pyridin-3(2H)-one]
1.1	Cc1ccc(Cn2nc3n(c2=O)C(C(=O)N2CC(F)(F)C2)CCC3)cc1 (single isomer, unassigned) [Example 115, (5RS)-5-[(3,3-Difluoroazetidin-1-yl)carbonyl]-2-(4-methylbenzyl)-5,6,7,8-tetrahydro[1,2,4]triazolo[4,3-a]pyridin-3(2H)-one]
5.5	COc1ccc(Cn2nc3n(c2=O)[C@H](C(=O)N2CCC(F)(F)C2)CCC3)nc1 [Example 381, (5S)-5-[(3,3-Difluoropyrrolidin-1-yl)carbonyl]-2-[(5-methoxypyridin-2-yl)methyl]-5,6,7,8-tetrahydro[1,2,4]triazolo[4,3-a]pyridin-3(2H)-one]
1.7	O=C([C@@H]1CCCc2nn(CCc3ccc(F)cc3)c(=O)n21)N1CC(F)C1 [Example 520, (5S)-5-[(3-Fluoroazetidin-1-yl)carbonyl]-2-[2-(4-fluorophenyl)ethyl]-5,6,7,8-tetrahydro[1,2,4]triazolo[4,3-a]pyridin-3(2H)-one]
36	O=C(C1CCCc2nn(Cc3ccc(OCC(F)(F)F)nc3)c(=O)n21)N1CCCC1 (racemic) [Example 153, (5RS)-5-(Pyrrolidin-1-ylcarbonyl)-2-{[6-(2,2,2-trifluoroethoxy)pyridin-3-yl]methyl}-5,6,7,8-tetrahydro[1,2,4]triazolo[4,3-a]pyridin-3(2H)-one]
4.4	O=C(C1CC(C(F)(F)F)Cc2nn(Cc3ncc(C(F)(F)F)cc3Cl)c(=O)n21)N1CCC(F)(F)C1 (racemic) [Example 564, (5RS,7RS)-2-{[3-Chloro-5-(trifluoromethyl)pyridin-2-yl]methyl}-5-[(3,3-difluoropyrolidin-1-yl)carbonyl]-7-(trifluoromethyl)-5,6,7,8-tetrahydro[1,2,4]triazolo[4,3-a]pyridin-3(2H)-one]
1.85	O=C(C1CCCc2nn(Cc3cc(C(F)(F)F)ccc3C(F)(F)F)c(=O)n21)N1CCCC1 (racemic) [Example 65, (5RS)-2-[2,5-Bis(trifluoromethyl)benzyl]-5-(pyrrolidin-1-ylcarbonyl)-5,6,7,8-tetrahydro[1,2,4]triazolo[4,3-a]pyridin-3(2H)-one]
107	Cc1ccc(Cn2nc3n(c2=O)C(C(=O)N2CC(O)(C(F)(F)F)C2)CCC3)cc1 (racemic) [Example 131, (5RS)-{[3-Hydroxy-3-(trifluoromethyl)azetidin-1-yl]carbonyl}-2-(4-methylbenzyl)-5,6,7,8-tetrahydro[1,2,4]triazolo[4,3-a]pyridin-3(2H)-one]
1.75	O=C(C1CCCc2nn(Cc3ccc(C(F)(F)F)cc3)c(=O)n21)N1CCCC1 (racemic) [Example 1, (5RS)-5-(Pyrrolidin-1-ylcarbonyl)-2-[4-(trifluoromethyl)benzyl]-5,6,7,8-tetrahydro[1,2,4]triazolo[4,3-a]pyridin-3(2H)-one]
0.365	N#C[C@@H]1CCCN1C(=O)[C@@H]1CCCc2nn(Cc3ccc(C(F)(F)F)nc3)c(=O)n21 [Example 511, (2S)-1-{[(5S)-3-Oxo-2-{[6-(trifluoromethyl)pyridin-3-yl]methyl}-2,3,5,6,7,8-hexahydro[1,2,4]triazolo[4,3-a]pyridin-5-yl]carbonyl}pyrrolidine-2-carbonitrile]
13.5	O=C([C@@H]1CCCc2nn(Cc3nccc(C(F)(F)F)c3Cl)c(=O)n21)N1CC(O)C1 [Example 390, (5S)-2-{[3-Chloro-4-(trifluoromethyl)pyridin-2-yl]methyl}-5-[(3-hydroxyazetidin-1-yl)carbonyl]-5,6,7,8-tetrahydro[1,2,4]triazolo[4,3-a]pyridin-3(2H)-one]
2	O=C([C@@H]1CCCc2nn(Cc3cnc(C(F)(F)F)c(Cl)c3)c(=O)n21)N1CCC(F)(F)C1 [Example 441, (5S)-2-{[5-Chloro-6-(trifluoromethyl)pyridin-3-yl]methyl}-5-[(3,3-difluoropyrrolidin-1-yl)carbonyl]-5,6,7,8-tetrahydro[1,2,4]triazolo[4,3-a]pyridin-3(2H)-one]
130	Cc1ccc(Cn2nc3n(c2=O)C(C(=O)N2CCCC2C)CCC3)cc1 (racemic) [Example 162, (5RS)-2-(4-Methylbenzyl)-5-[2(RS)-(2-methylpyrrolidin-1-yl)carbonyl]-5,6,7,8-tetrahydro[1,2,4]triazolo[4,3-a]pyridin-3(2H)-one]
6.4	O=C([C@@H]1CCC(F)(F)c2nn(Cc3ccc(Cl)cn3)c(=O)n21)N1CC(F)C1 [Example 587, (5S)-2-[(5-Chloropyridin-2-yl)methyl]-8,8-difluoro-5-[(3-fluoroazetidin-1-yl)carbonyl]-5,6,7,8-tetrahydro[1,2,4]triazolo[4,3-a]pyridin-3(2H)-one]
2.1	O=C(C1CCCc2nn(Cc3cccc(Cl)c3)c(=O)n21)N1CCC(F)(F)C1 (racemic) [Example 44, (5RS)-2-(3-Chlorobenzyl)-5-[(3,3-difluoropyrrolidin-1-yl)carbonyl]-5,6,7,8-tetrahydro[1,2,4]triazolo[4,3-a]pyridin-3(2H)-one]
27.5	O=C([C@@H]1CCCc2nn(Cc3ccnc(C(F)(F)F)c3F)c(=O)n21)N1CC(O)C1 [Example 481, (5S)-2-{[3-Fluoro-2-(trifluoromethyl)pyridin-4-yl]methyl}-5-[(3-hydroxyazetidin-1-yl)carbonyl]-5,6,7,8-tetrahydro[1,2,4]triazolo[4,3-a]pyridin-3(2H)-one]
0.51	O=C([C@@H]1CCCc2nn(Cc3ccc(C(F)(F)F)c(Cl)c3)c(=O)n21)N1C[C@@H](F)[C@@H](F)C1 [Example 458, (5S)-2-[3-Chloro-4-(trifluoromethyl)benzyl]-5-{[(3R,4S)-3,4-difluoropyrrolidin-1-yl]carbonyl}-5,6,7,8-tetrahydro[1,2,4]triazolo[4,3-a]pyridin-3(2H)-one]
5.6	Cc1ccc(Cn2nc3n(c2=O)C(C(=O)N2CCC(=O)C2)CCC3)cc1 (racemic) [Example 118, (5RS)-2-(4-Methylbenzyl)-5-[(3-oxopyrrolidin-1-yl)carbonyl]-5,6,7,8-tetrahydro[1,2,4]triazolo[4,3-a]pyridin-3(2H)-one]
15.1	O=C(C1CC(C(F)(F)F)Cc2nn(Cc3ccnc(C(F)(F)F)c3F)c(=O)n21)N1CC(F)C1 (single isomer, unassigned) [Example 255, (5RS,7RS)-5-[(3-Fluoroazetidin-1-yl)carbonyl]-2-{[3-fluoro-2-(trifluoromethyl)pyridin-4-yl]methyl}-7-(trifluoromethyl)-5,6,7,8-tetrahydro[1,2,4]triazolo[4,3-a]pyridin-3(2H)-one]
1.3	O=C(C1CCc2nn(Cc3ccnc(C(F)(F)F)c3F)c(=O)n21)N1CC[C@H](F)C1 (mixture of isomers) [Example 178, (5RS)-5-{[(3S)-3-Fluoropyrrolidin-1-yl]carbonyl}-2-{[3-fluoro-2-(trifluoromethyl)pyridin-4-yl]methyl}-2,5,6,7-tetrahydro-3H-pyrrolo[2,1-c][1,2,4]triazol-3-one]
